From a melting point compilation (Tetko et al.; mined from patent text by program, amines drawn as free bases though some values may be those of a salt)

With `CCN1C(=O)C(C)(C)C(=O)N(C)c2cc(CN(CCn3ccc4oc(C)cc4c3=O)CCn3ccc4oc(C)cc4c3=O)ccc21` the melting point was 160 to 165 °C. `CC(=O)Nc1ccc(C=NNC(N)=S)cc1Cl` gave a melting point of 235 to 238 °C. Work on `CC(C(=O)O)c1ccc(CC2CCCCC2=O)cc1` (centres undefined) yielded a melting point of 84 to 86 °C. `CCOC(=O)c1cnc(N)nc1O` gave a melting point of 280 °C. Work on `CON=C(C#N)C(N)=O` yielded a melting point of 170 to 172 °C. In the case of `CCOC(=O)C(C(C)=O)C1NC(=O)c2sccc2-n2cccc21` (centres undefined), the melting point is reported as 196 °C. Molecule `CC(C)(C)COC1CCC(=O)N1C(=O)c1ccccc1` (centres undefined) has a melting point of 83 to 85 °C. For `COc1ccc(C(=O)N[C@H](Cc2ccc(C(F)(F)F)cc2)[C@@H](O)c2ccc(F)cc2)cc1` (racemic), the melting point was 192 to 193 °C. With `CN(C)C(=O)n1cc(C(=O)C2CSC(c3cccnc3)N2)c2ccc(-c3ccccc3)cc21` (centres undefined) the melting point was 91 to 97 °C. Molecule `O=C1N(C(c2ccccc2)c2ccccc2)c2c(F)cccc2C1(O)c1cc2c(cc1O)OCC2` (centres undefined) has a melting point of 121 to 122 °C. Molecule `NS(=O)(=O)c1ccc(-c2cn(-c3nc(-c4cccc(Cl)c4)cc(C(F)(F)F)n3)cn2)s1` has a melting point of 280 °C. Molecule `CC1CCN(c2ccc([N+](=O)[O-])cc2C(=O)c2ccc(Cl)c(Cl)c2)CC1` has a melting point of 116 °C. `CC(C)Cn1c(CN2CCCS2(=O)=O)nc2c(N)nc3ccccc3c21` showed a melting point of 230 to 232 °C. For `CN1CCN(c2ccc(I)nn2)CC1`, the melting point was 149 °C. Molecule `O=C(O)C1=Cc2ccc(-c3ccccc3)cc2OC1C(F)(F)F` (centres undefined) has a melting point of 209 to 212 °C. Work on `Cc1cc(Nc2ccnc(Nc3ccc(S(=O)(=O)N(C)C4CCCN(C)C4)cc3)n2)ccc1F` (centres undefined) yielded a melting point of 188 °C. Molecule `Cc1cc(C)c2c(c1C)OCC2c1ccccc1` (centres undefined) has a melting point of 72 to 73 °C. `OC(c1cccnc1)c1ccc(Cl)cc1Cl` (centres undefined) gave a melting point of 108 to 111 °C. For `Cc1cc(N2CC=C(C(N)=O)CC2)c2c(C)c(C)n(-c3ccc(Cl)cc3Cl)c2n1`, the melting point was 265 to 267 °C. For `CCn1c([N+](=O)[O-])cnc1-c1nnc2ccc(Cl)nn12`, the melting point was 164 to 166 °C. For `O=[N+]([O-])c1ccc(-n2nnnc2-c2ccccc2-c2ccc(CBr)cc2)cc1`, the melting point was 192 to 195 °C. `Cc1sc(N)c(C(=O)c2ccco2)c1C` gave a melting point of 95 to 97 °C. `O=C(O)C1CC(c2ccccc2)=NN1` (centres undefined) gave a melting point of 180 to 182 °C. `CN1CC(C(=O)c2coc(Cc3ccc(F)cc3)c2)=C(O)C1=O` showed a melting point of 158 to 160 °C. For `O=C1CCN(C2c3ccccc3C=Cc3ccccc32)CC1C(c1ccccc1)c1ccccc1` (centres undefined), the melting point was 175 to 178 °C. In the case of `CCCCCCCCCCCCCCCCCCOc1cc(N)cc(OC(C)=O)c1`, the melting point is reported as 73 to 74 °C. With `COc1ccc(Cn2c3c(c(C#N)c2NC2=CC(=O)CCC2)CCCC3)cc1` the melting point was 143 to 145 °C. Molecule `CC(=O)c1c(C)[nH]c(-c2ccccc2C)c1NCc1ccc(Cl)cc1` has a melting point of 167 to 170 °C. Molecule `COc1cccc([C@H]2O[C@H](CC(=O)NCP(=O)(O)O)C(=O)N(CC(C)(C)C)c3ccc(Cl)cc32)c1OC` has a melting point of 152 to 155 °C. Molecule `N#Cc1cnc(Nc2ccc(OCCn3cncn3)cc2)nc1-c1ccccc1` has a melting point of 105 °C. Work on `ClCOc1ccc2ccccc2c1` yielded a melting point of 70 °C. For `O=C(O)COc1cccc2c1CCc1sc(NCCC(c3ccccc3)c3ccccc3)nc1-2`, the melting point was 240 to 243 °C. In the case of `ClCCCOc1ccc(-c2cnc(CSCCOc3ccccc3)o2)cc1`, the melting point is reported as 71 to 73 °C. `CCCCOc1cc(/C=C(\OCC)C(=O)O)ccc1OCCc1ccc(N(C)C(C)=O)cc1` gave a melting point of 121 °C. In the case of `COc1cc(C(=O)c2ccnc3ccccc23)ccc1O`, the melting point is reported as 190 to 192 °C. `CCCc1c(SCCCOc2ccc(C(C)=O)c(OCCCC(=O)O)c2CCC)ccc(C(C)=O)c1O` gave a melting point of 79 to 81 °C. `C=Cn1ccnc1C(O)(c1ccccc1)c1ccccc1C(C)(C)C` (centres undefined) gave a melting point of 152 to 153 °C. Molecule `O=C(NC1CCCCC1)OCc1ccccc1[N+](=O)[O-]` has a melting point of 101 to 102 °C. `CCOc1cc(C(CC(=O)O)N2Cc3ccccc3C2=O)ccc1OC` (centres undefined) showed a melting point of 194 °C. In the case of `CCC(C)c1ccc(-n2c(-c3cc(C)c(OCCO)c(C)c3)nc3ccccc3c2=O)cc1` (centres undefined), the melting point is reported as 152 to 153 °C. With `Cc1cc(C(=O)N2Cc3cccn3Cc3ccccc32)ccc1I` the melting point was 152 to 153 °C. With `CCOC(=O)CCCCC(=O)c1ccc2cc(O)ccc2c1` the melting point was 139 to 142 °C. `O=c1nc(-c2ccccc2)c2cc([N+](=O)[O-])ccc2n1CC1CC2CCC1C2` (centres undefined) gave a melting point of 160 °C. In the case of `CN1CCN(c2ccccc2C(F)(F)F)C(C2=NCCN2)C1` (centres undefined), the melting point is reported as 163 to 165 °C. With `CC(=O)NC[C@H]1CN(c2ccc(C3CCN(C(=O)CO)CC3)cc2)C(=O)O1` the melting point was 155 to 157 °C. In the case of `Nc1ccncc1Nc1ccc2cn[nH]c2c1`, the melting point is reported as 214 to 216 °C. With `Cc1nn(-c2cc3nc(S(=O)Cc4ccccc4)sc3cc2F)c(=O)n1C` (centres undefined) the melting point was 162 to 164 °C. For `CC(C)(C)OC(=O)n1c(C(=O)O)cc2ccccc21`, the melting point was 117 °C. Molecule `O=C(O)CCc1ccc2c(c1)oc1ccc(Cl)cc12` has a melting point of 174 to 178 °C.
